# Laboratory results as given in US7964598B2 (The J. David Gladstone Institutes, priority 1995, dated 2011).
# Values joined by “and” are separate entries in the source; they are usually repeats but may differ in a detail not shown here. Identical values can stand only once. “Also recorded” adds a separate entry of the source.
# Target: T1, apoE4 (Homo sapiens, UniProt P02649, C130R)
# T1 construct: made in house
# Test: Emulsion binding assay for domain interaction, apoE4
# Procedure: Preparation of emulsion particles. Triolein (160 mg) and L-alpha-Phosphatidylcholine (40 mg) are combined and dried under nitrogen. After the addition of 8 mls of buffer (10 mM Tris, 100 mM KCl, 1 mM EDTA, pH 8.0), the mixture is sonicated in a water bath to obtain a heterogeneous mix of emulsion particles. The particles are harvested by ultracentrifugation (TLA 100.2 rotor, 30,000 rpm for 30 minutes) and the subsequent lipid cake is removed by tube slicing and resuspended in 100 μt 20 mM Phosphate Buffer (PB). Triolein and phospholipid content are measured and total emulsion particle concentration is determined.
# Radiolabelling Freshly denatured and renatured Apolipoprotein E3 and E4 are radiolabelled using Bolton-Hunter Reagent [^125I] (ICN). Specific Activity is determined using Lowry method and Gamma 8000 counter.
# Binding Affinity Assay. […] In glass tubes, 25 μg of protein (with iodinated tracer) was reduced with 1% β-mercaptoethanol. Two hundred and fifty μg of emulsion particles and 2.5 μl of compound (10 mM stock) were added and the final mixture was brought up to 250 μl with 20 mM phosphate buffer (PB). The reaction mixture was then incubated in a 37° C. water bath for 2 hours before being transferred to 1.5 ml ultracentrifuge tubes. Finally, 50 μl of 60% sucrose was mixed with the sample and 400 μl 20 mM PB was carefully layered on top. Using a TLA 100.2 rotor, the tube was spun at 30,000 rpm for 30 minutes and subsequently cut to separate the floating emulsion particle layer from the free protein at the bottom of the tube. These fractions were then combined with the respective half of the actual tube and counted using a Gamma-8000. […] Protein-only assays yielded 94.5-96.6% of protein accumulated in the bottom portion of the tube. In emulsion particle-only assays, 94% of emulsion particles accumulated in the top portion of the tube.
# Preparation of Emulsion Particles and VLDL Binding Affinity Assay. VLDL-like emulsion particles were prepared using triolein (160 mg) and L-alpha-phosphatidylcholine (40 mg), as described. Dong and Weisgraber (1996) supra; and Dong et al. (1994) J. Biol. Chem. 269:22358-22365.
# [1] = follow-up assay, second E4 control
# [2] = initial assay, 2.5 μl of compound (10 mM stock) in 250 μl, 37° C. 2 hours
# T1 sequence (P02649 19-317 C130R): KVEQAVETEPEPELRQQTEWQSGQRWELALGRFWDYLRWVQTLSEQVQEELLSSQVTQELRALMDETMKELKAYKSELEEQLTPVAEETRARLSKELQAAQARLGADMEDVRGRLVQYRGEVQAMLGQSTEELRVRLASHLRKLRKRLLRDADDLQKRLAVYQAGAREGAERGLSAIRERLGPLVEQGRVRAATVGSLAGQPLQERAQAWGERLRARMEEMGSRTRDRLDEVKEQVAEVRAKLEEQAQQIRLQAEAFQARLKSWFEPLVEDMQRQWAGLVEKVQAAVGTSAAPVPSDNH
compound,measurement,setting,value
"O=S(=O)([O-])c1ccc2c(c1)c(Nc1ccc(S(=O)(=O)O)cc1)cc1c2nc2ccccc2[n+]1-c1ccccc1 [GIND-25, azocarmine-G]",apoE4 domain interaction / binding of apoE4 to VLDL-like emulsion particles,,capable of blocking apoE4 domain interaction; also recorded: inhibited significantly
same,"E4 + cpd n = 3, % bound",follow-up assay,57%
same,"E4 + cpd n = 3, % free",follow-up assay,43%
same,"E4 control, % bound",[1],46%
same,"E4 control, % free",[1],54%
same,"E4 + cpd, % bound",[2],12% and 15%
same,"E4 + cpd, % free",[2],88% and 85%
